Data set [1] can be described thus: Pharmacokinetic study of oral vs intra-cecal administration of tacrolimus (Example 13). Details: species or system Yorkshire-Cross farm swine. As to conditions: in vivo, 0.09 mg/kg. An excerpt:
(§1) No further randomization procedure was employed.

On the set-up of data set [2]: species or system Yorkshire-Cross farm swine. As to conditions: in vivo. As to the method: The primary objective of this study was to compare the tissue, plasma, rectal sample, and GI content pharmacokinetics of tacrolimus through oral versus intra-cecal ingestible device delivery in normal Yorkshire-Cross farm swine.
as §1
Animals in Group 1 received an ingestible device containing 0.8 mL of vehicle solution (80% alcohol, 20% HCO-60). Animals in Group 2 received orally […] liquid formulation of tacrolimus at 4 mg/0.8 mL per animal (Prograf: 5 mg/mL). Animals in Group 3 received intra-cecally an ingestible device containing tacrolimus at 1 mg in 0.8 mL per ingestible device. Animals in Group 4 received intra-cecally an ingestible device containing tacrolimus at 2 mg in 0.8 mL per ingestible device. Animals in Group 5 received intra-cecally an ingestible device containing tacrolimus at 4 mg in 0.8 mL per ingestible device. To control for potential confounding effects of the surgery, all groups fast on Day −11 at least 24 hr before being subjected to anesthesia followed by surgical placements of a cecal port by a veterinary surgeon at Day −10. All animals were fasted for at least 12 hr prior to dosing on Day 1. Animals were dosed via either intra-cecal dosing (IC) or oral dosing (PO) at Day 1 (between 6-8 p.m.). All animals resumed feeding at approximately 4 hours after dose (11-12 p.m. after dosing).
Animals in Group 1 (Vehicle Control) were administered a single intra-cecal ingestible device containing 0.8 mL Vehicle solution (80% alcohol, 20% castor oil (HCO-60) on Day 1. On Day −10 the animals were anesthetized, and a veterinary surgeon surgically placed an intra-cecal port in each animal. On Day 1, each animal was placed into a sling then a single intra-cecal ingestible device containing 0.8 mL vehicle solution (80% alcohol, 20% castor oil (HCO-60)) is introduced by the veterinary surgeon into the cecum via the cecal port in each animal. Following ingestible device placement, the animals were removed from the slings and placed back into their pens with water. All animals resumed feeding at approximately 4 hours after dose. […] A total of 60 samples were collected.
Approximately 200˜400 mg of rectal content were collected, if available, with a fecal swab (Copan Diagnostics Nylon Flocked Dry Swabs, 502CS01). The fecal swab was pre-weighed and weighed after collection in the collection tube (Sterile Tube and Cap No Media, PFPM913S), and the sample weight was recorded. The fecal swab was broken via the breakpoint, and was stored in the collection tube, and immediately frozen at −70° C. […] Immediately following euthanasia, tissue was collected.
For tissue necropsy, small intestine fluid and cecal fluid were collected separately from all the animals into two separate square plastic bottles, and stored at −20° C. The length and diameter of the cecum and the colon was measured from one animal in each group and recorded for reference. Tissues were collected for pharmacokinetic analyses and include mesenteric lymph nodes, a Peyer's Patch, and five gastrointestinal sections, including cecum, proximal colon, transverse colon, distal colon, and rectum. All samples were weighed, and the tissue sample weights were recorded. In each of the five gastrointestinal sections, tissue samples were collected in three different areas where the mucosal surface was visible and not covered by luminal content by using an 8.0-mm punch biopsy tool. Around 3 grams of the total punched sample were collected into a pre-weighed 15-mL conical tube, and the tissue weight was recorded. Three mesenteric lymph nodes were collected from different areas and weighed. At least one Peyer's Patch was collected and weighed.
Luminal contents were collected for pharmacokinetic analyses from the surface of the tissue from each of five gastrointestinal sections: cecum, proximal colon, transverse colon, distal colon, and rectum (total of 75). […]

The mark [3] stands for this setting: female, Yorkshire-Cross, pig, po, 12 h.

In turn, `C=CC[C@@H]1/C=C(\C)C[C@H](C)C[C@H](OC)[C@H]2O[C@@](O)(C(=O)C(=O)N3CCCC[C@H]3C(=O)O[C@H](/C(C)=C/[C@@H]3CC[C@@H](O)[C@H](OC)C3)[C@H](C)[C@@H](O)CC1=O)[C@H](C)C[C@@H]2OC` [tacrolimus] returned a Kp at 12 h in data set [1] (female, Yorkshire-Cross, pig, po) of 0. Besides, in data set [1] (setting [3]), the “Ratio Tissue(mean) (ng/g)/Trough(12 hr) (ng/mL), Cecum” value was determined as 0; the “Ratio Tissue(mean) (ng/g)/Trough(12 hr) (ng/mL), Distal Colon” value was 0; the “Ratio Tissue(mean) (ng/g)/Trough(12 hr) (ng/mL), Proximal Colon” value was determined as 0; the “Ratio Tissue(mean) (ng/g)/Trough(12 hr) (ng/mL), Transverse colon” value was 0. Further, the “Trough (12 hr)” value in data set [1] (female, Yorkshire-Cross, swine, po, 12 h) is 0.568 ng/mL. The compound further returned a concentration at 12 h in data set [1] (female, Yorkshire-Cross, swine, po, Trough (12 hr)) of 0.568 ± 0.291 ng/mL. Moreover, in data set [1], the “AUC0-12 hours in the blood, intra-cecal vs oral” value is on record as “higher” and the “mean concentration in the blood, intra-cecal vs oral” value is on record as “higher”. Besides, in data set [2], the “exposure AUC” value is reported as < 2000-12 ng·h/mL; the “luminal content concentration, distal colon, IC capsule vs PO” value was “Significantly higher”; the “luminal content concentration, spiral colon, IC capsule vs PO” value is listed as “Significantly higher”; the “luminal content concentration, transverse colon, IC capsule vs PO” value is reported as “Significantly higher”. For the same compound, in data set [2], the “tissue concentration, spiral colon, IC capsule vs PO” value is recorded as “Significantly higher” and the “tissue concentration, transverse colon, IC capsule vs PO” value is recorded as “Significantly higher”. Also, in data set [2] (po), the “level of tacrolimus detected in tissue” value is given as “No measurable level”.
